Source: ChEMBL document CHEMBL1141885, “N1-arylsulfonyl-3-(1,2,3,6-tetrahydropyridin-4-yl)-1H-indole derivatives are potent and selective 5-HT6 receptor antagonists” (Bioorg Med Chem Lett, 2005)

Columns and labels:
[1] = biological target: T1, 5-hydroxytryptamine receptor 6 (Homo sapiens, UniProt P50406); experiment: Binding affinity against cloned human 5-hydroxytryptamine 6 receptor expressed in HeLa cells using [3H]LSD; assay type: cell-based
[2] = biological target: T1, 5-hydroxytryptamine receptor 6; experiment: Inhibitory concentration against 5-HT stimulated cAMP production in HeLa cells stably transfected with human 5-HT6 receptor; assay type: functional, cell-based
[3] = biological target: T1, 5-hydroxytryptamine receptor 6; experiment: Inhibition of [3H]LSD binding to cloned human 5-hydroxytryptamine 6 receptor expressed in HeLa cells at 1 uM; assay type: cell-based
[4] = biological target: T2, D(3) dopamine receptor (Homo sapiens, UniProt P35462); experiment: Binding affinity against human cloned Dopamine receptor D3 stably expressed in CHO-K1 cells using [3H]spiperone; assay type: cell-based
[5] = biological target: T3, D(4) dopamine receptor (Homo sapiens, UniProt P21917); experiment: Binding affinity against human cloned Dopamine receptor D4 stably expressed in CHO-K1 cells using [3H]spiperone; assay type: cell-based
T3 sequence (P21917 whole entry): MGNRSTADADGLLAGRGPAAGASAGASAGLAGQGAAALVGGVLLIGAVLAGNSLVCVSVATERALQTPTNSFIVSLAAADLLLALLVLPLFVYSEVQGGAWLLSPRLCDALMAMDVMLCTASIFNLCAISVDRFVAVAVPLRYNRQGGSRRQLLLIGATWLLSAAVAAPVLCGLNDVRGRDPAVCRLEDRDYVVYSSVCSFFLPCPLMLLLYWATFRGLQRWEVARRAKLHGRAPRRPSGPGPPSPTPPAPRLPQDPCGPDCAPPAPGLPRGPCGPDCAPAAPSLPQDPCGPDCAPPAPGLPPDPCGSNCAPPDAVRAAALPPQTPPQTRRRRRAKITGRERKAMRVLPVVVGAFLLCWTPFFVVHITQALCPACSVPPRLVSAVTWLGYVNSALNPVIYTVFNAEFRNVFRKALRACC

[6] = biological target: 5-hydroxytryptamine receptor 1B (Homo sapiens) (UniProt P28222); experiment: Inhibition of [3H]-5-HT binding to human cloned 5-hydroxytryptamine 1B receptor stably expressed in CHO cells at 1 uM; assay type: cell-based
[7] = biological target: 5-hydroxytryptamine receptor 1D (Homo sapiens) (UniProt P28221); experiment: Inhibition of [3H]5-HT binding to human cloned 5-hydroxytryptamine 1D receptor stably expressed in CHO cells at 1 uM; assay type: cell-based
[8] = biological target: T4, 5-hydroxytryptamine receptor 1F (Homo sapiens) (UniProt P30939); experiment: Inhibition of [3H]-5-HT binding to human cloned 5-hydroxytryptamine 1F receptor stably expressed in CHO cells at 1 uM; assay type: cell-based
T4 sequence (whole entry): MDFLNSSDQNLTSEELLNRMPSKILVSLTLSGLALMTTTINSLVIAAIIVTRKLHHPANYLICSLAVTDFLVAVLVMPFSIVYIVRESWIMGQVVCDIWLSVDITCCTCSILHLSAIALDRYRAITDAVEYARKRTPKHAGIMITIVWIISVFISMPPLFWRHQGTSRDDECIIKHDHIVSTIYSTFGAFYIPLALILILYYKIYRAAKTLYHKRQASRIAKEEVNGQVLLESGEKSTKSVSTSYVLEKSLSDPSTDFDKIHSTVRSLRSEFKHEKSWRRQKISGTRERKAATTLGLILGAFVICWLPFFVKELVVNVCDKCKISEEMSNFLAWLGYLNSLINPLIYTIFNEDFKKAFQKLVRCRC

[9] = biological target: T5, 5-hydroxytryptamine receptor 2A (Homo sapiens, UniProt P28223); experiment: Binding affinity against human cloned 5-hydroxytryptamine 2A receptor stably expressed in CHO cells using [125I]DOI; assay type: cell-based
[10] = biological target: T6, 5-hydroxytryptamine receptor 2C (Homo sapiens, UniProt P28335); experiment: Binding affinity against human cloned 5-hydroxytryptamine 2C receptor stably expressed in CHO cells using [3H]-5-HT; assay type: cell-based
T6 sequence (P28335 whole entry): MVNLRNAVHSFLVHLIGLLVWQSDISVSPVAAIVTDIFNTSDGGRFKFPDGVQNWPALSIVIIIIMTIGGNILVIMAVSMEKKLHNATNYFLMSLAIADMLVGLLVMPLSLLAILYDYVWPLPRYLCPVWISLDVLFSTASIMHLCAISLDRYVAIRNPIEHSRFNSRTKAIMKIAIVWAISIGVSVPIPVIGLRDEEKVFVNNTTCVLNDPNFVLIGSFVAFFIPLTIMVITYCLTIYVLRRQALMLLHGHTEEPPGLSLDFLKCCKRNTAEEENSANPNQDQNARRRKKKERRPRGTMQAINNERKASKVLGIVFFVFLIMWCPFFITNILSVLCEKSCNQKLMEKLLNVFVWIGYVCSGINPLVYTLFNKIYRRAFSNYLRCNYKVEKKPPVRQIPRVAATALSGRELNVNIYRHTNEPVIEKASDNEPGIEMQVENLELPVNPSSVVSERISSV

[11] = biological target: T7, D(2) dopamine receptor (Homo sapiens, UniProt P14416); experiment: Binding affinity against human cloned Dopamine receptor D2 stably expressed in CHO-K1 cells using [3H]spiperone; assay type: cell-based
[12] = biological target: T8, 5-hydroxytryptamine receptor 1A (Homo sapiens, UniProt P08908); experiment: Binding affinity against human cloned 5-hydroxytryptamine 1A receptor stably expressed in CHO cells using DPAT
T8 sequence (P08908 whole entry): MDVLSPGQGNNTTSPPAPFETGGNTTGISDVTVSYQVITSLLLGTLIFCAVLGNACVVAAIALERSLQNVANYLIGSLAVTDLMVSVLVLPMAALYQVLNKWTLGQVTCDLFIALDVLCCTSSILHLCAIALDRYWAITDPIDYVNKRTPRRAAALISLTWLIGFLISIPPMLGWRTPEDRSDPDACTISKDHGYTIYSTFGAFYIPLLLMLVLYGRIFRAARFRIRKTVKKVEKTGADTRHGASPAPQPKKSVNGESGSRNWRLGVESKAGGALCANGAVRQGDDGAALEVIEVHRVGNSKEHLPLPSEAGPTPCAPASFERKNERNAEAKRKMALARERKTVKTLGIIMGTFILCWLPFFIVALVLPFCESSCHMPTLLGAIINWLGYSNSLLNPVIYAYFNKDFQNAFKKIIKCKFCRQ

[13] = biological target: 5-hydroxytryptamine receptor 7 (Homo sapiens, UniProt P34969); experiment: Binding affinity against human cloned 5-hydroxytryptamine 7 receptor stably expressed in CHO cells using [3H]LSD; assay type: cell-based
[14] = biological target: T5, 5-hydroxytryptamine receptor 2A; experiment: Inhibition of [125I]DOI binding to human cloned 5-hydroxytryptamine 2A receptor stably expressed in CHO cells at 1 uM; assay type: cell-based
[15] = biological target: T9, 5-hydroxytryptamine receptor 2C (Homo sapiens) (UniProt P28335); experiment: Inhibition of [3H]5-HT binding to human cloned 5-hydroxytryptamine 2C receptor stably expressed in CHO cells at 1 uM; assay type: cell-based
T9 sequence (whole entry): T6 sequence (P28335 whole entry)

[16] = biological target: T7, D(2) dopamine receptor; experiment: Inhibition of [3H]spiperone binding to human cloned Dopamine receptor D2 stably expressed in CHO-K1 cells at 1 uM; assay type: cell-based
[17] = biological target: T2, D(3) dopamine receptor; experiment: Inhibition of [3H]spiperone binding to human cloned Dopamine receptor D3 stably expressed in CHO-K1 cells at 1 uM; assay type: cell-based
[18] = biological target: T10, D(4) dopamine receptor (Homo sapiens) (UniProt P21917); experiment: Inhibition of [3H]spiperone binding to human cloned Dopamine receptor D4 stably expressed in CHO-K1 cells at 1 uM; assay type: cell-based
T10 sequence (whole entry): T3 sequence (P21917 whole entry)

5-hydroxytryptamine receptor 1D (Homo sapiens), sequence (P28221 whole entry): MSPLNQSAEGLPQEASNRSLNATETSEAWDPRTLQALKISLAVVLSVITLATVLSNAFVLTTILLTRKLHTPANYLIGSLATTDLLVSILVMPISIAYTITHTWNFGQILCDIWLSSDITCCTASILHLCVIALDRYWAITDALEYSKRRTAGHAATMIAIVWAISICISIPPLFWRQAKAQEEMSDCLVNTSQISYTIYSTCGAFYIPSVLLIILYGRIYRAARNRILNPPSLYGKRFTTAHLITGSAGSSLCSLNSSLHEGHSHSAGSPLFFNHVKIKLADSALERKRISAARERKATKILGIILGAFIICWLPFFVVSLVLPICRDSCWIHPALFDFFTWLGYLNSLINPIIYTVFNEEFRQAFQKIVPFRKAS
T2 sequence (P35462 whole entry): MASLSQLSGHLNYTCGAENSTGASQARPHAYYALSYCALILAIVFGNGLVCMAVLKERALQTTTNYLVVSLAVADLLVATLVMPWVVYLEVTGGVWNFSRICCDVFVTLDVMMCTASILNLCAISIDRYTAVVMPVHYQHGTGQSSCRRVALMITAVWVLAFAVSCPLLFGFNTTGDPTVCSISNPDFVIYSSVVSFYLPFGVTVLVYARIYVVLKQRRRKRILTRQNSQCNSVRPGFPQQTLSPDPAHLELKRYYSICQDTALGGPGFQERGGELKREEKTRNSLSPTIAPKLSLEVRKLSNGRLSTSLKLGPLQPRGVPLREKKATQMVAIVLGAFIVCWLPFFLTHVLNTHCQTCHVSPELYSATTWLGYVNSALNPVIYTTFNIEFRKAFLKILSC
T5 sequence (P28223 whole entry): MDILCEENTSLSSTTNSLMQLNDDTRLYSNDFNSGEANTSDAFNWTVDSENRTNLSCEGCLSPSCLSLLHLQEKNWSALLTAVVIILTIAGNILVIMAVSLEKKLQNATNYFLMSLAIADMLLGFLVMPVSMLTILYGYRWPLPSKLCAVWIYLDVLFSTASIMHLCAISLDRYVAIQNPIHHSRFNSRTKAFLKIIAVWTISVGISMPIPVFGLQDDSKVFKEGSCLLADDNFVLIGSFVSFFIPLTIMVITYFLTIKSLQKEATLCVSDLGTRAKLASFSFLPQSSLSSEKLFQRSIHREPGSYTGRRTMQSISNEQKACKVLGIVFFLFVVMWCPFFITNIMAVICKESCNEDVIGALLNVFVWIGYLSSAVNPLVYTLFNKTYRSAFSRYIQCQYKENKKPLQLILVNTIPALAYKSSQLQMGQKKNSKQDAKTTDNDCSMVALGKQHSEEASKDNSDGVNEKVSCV
5-hydroxytryptamine receptor 7, sequence (P34969 whole entry): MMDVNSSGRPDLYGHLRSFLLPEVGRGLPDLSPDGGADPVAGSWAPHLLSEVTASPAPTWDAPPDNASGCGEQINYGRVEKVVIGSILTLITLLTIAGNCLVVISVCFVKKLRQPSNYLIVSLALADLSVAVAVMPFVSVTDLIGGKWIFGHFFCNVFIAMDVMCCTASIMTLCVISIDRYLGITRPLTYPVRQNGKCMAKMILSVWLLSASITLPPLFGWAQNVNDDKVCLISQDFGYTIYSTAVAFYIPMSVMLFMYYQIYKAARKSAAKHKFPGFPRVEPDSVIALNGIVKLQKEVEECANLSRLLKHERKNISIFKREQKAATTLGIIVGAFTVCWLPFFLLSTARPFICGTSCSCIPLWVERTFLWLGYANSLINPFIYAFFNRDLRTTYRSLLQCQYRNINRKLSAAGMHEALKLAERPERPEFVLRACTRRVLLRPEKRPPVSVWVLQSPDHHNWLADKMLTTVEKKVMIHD
T1 sequence (P50406 whole entry): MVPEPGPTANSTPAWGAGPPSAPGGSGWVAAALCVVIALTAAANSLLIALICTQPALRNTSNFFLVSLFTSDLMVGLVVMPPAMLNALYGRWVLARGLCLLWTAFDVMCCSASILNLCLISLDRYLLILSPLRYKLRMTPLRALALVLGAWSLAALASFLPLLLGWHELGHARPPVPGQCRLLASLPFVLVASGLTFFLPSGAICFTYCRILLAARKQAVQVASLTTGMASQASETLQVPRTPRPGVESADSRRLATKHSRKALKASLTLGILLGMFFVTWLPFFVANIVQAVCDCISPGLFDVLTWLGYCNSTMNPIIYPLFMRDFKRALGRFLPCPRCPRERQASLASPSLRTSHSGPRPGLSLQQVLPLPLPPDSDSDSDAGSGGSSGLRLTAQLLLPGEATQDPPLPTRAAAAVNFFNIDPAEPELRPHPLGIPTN
T7 sequence (P14416 whole entry): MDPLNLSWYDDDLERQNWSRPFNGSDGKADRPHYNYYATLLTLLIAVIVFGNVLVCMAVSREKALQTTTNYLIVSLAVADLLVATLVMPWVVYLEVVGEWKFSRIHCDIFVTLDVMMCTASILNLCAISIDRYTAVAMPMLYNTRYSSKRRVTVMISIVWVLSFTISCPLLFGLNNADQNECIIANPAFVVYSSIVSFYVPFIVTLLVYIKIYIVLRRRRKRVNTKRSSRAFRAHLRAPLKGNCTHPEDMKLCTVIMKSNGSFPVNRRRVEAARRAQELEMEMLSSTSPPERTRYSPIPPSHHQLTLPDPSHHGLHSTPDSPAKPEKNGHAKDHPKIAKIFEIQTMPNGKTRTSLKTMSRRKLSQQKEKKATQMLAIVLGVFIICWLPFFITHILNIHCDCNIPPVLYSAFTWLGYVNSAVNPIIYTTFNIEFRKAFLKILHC
5-hydroxytryptamine receptor 1B (Homo sapiens), sequence (P28222 whole entry): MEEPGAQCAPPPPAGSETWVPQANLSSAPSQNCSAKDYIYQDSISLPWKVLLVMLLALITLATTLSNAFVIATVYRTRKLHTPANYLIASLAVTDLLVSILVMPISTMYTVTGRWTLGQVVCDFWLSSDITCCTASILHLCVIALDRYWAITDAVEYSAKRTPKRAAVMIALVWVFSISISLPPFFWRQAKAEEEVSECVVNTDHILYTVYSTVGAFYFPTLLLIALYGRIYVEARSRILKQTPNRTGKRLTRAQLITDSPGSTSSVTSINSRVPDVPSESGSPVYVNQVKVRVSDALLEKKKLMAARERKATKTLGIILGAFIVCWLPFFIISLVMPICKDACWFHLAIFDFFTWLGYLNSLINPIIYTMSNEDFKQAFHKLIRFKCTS

Compound	Ki [1] [nM]	IC50 [2] [nM]	also measured
COc1ccc(S(=O)(=O)n2cc(C3=CCNCC3)c3ccccc32)cc1	18	–	–
Nc1ccc(S(=O)(=O)n2cc(C3=CCNCC3)c3ccc([N+](=O)[O-])cc32)cc1	31	–	–
O=S(=O)(c1ccc(Cl)s1)n1cc(C2=CCNCC2)c2ccccc21	3	14.1	–
CN1CC=C(c2cn(S(=O)(=O)c3cccc(Cl)c3)c3ccccc23)CC1	1	9.4	–
CC(=O)N1CC=C(c2cn(S(=O)(=O)c3ccccc3)c3ccccc23)CC1	–	–	inhibition [3]: 64%
COc1ccc2c(c1)c(C1=CCNCC1)cn2S(=O)(=O)c1ccc2ccccc2c1	19	4.1	–
O=S(=O)(c1ccccc1)n1cc(C2CCNCC2)c2ccccc21	12	19.5	–
Nc1ccc(S(=O)(=O)n2cc(C3=CCNCC3)c3cc(OCc4ccccc4)ccc32)cc1	50	–	–
CC(C)(C)OC(=O)N1CC=C(c2cn(S(=O)(=O)c3ccccc3)c3ccccc23)CC1	54	–	–
CN1CC=C(c2cn(S(=O)(=O)c3ccccc3Cl)c3ccccc23)CC1	10	0.7	–
O=S(=O)(c1ccc(F)cc1)n1cc(C2=CCNCC2)c2cc(F)ccc21	3	31	–
O=S(=O)(c1ccccc1)n1cc(C2=CCN(Cc3ccccc3)CC2)c2ccccc21	246	–	–
Nc1ccc(S(=O)(=O)n2cc(C3=CCNCC3)c3ccc(Cl)cc32)cc1	3	11.2	–
O=S(=O)(c1ccccc1Cl)n1cc(C2=CCNCC2)c2ccccc21	0.4	8.8	Ki [4]: 627 nM; Ki [5]: > 5000 nM; inhibition [6]: 12%; inhibition [7]: 6%; inhibition [8]: 2%; Ki [9]: 599 nM; Ki [10]: 383 nM; Ki [11]: > 2000 nM; Ki [12]: > 2000 nM
O=S(=O)(c1cccc2ccccc12)n1cc(C2=CCNCC2)c2cc(F)ccc21	4	9	–
O=S(=O)(c1ccc(C(F)(F)F)cc1)n1cc(C2=CCNCC2)c2ccccc21	20	–	–
O=S(=O)(c1ccc(Cl)cc1)n1cc(C2=CCNCC2)c2cc(F)ccc21	14	–	–
CCCCS(=O)(=O)n1cc(C2=CCNCC2)c2ccccc21	77	–	–
Nc1ccc(S(=O)(=O)n2cc(C3=CCNCC3)c3ccccc32)cc1	2	0.8	Ki [13]: 1550 nM; inhibition [6]: 33%; Ki [12]: 1670 nM

Compound	Ki [1] [nM]	IC50 [2] [nM]	also measured
Nc1ccc(S(=O)(=O)n2cc(C3CCNCC3)c3cc(F)ccc32)cc1	2	1.3	–
CN1CC=C(c2c[nH]c3ccccc23)CC1	98	–	–
O=S(=O)(c1ccccc1)n1cc(C2=CCNCC2)c2ccccc21	2	43	–
CN1CC=C(c2cn(C(=O)c3ccccc3)c3ccccc23)CC1	99	–	–
CN1CC=C(c2cn(C(=O)Nc3ccccc3)c3ccccc23)CC1	118	–	–
Nc1ccc(S(=O)(=O)n2cc(C3=CCNCC3)c3cc(Br)ccc32)cc1	7	33.7	–
Nc1ccc(S(=O)(=O)n2cc(C3CCNCC3)c3ccc(Cl)cc32)cc1	3	8.5	Ki [13]: > 2000 nM; inhibition [14]: 65%; inhibition [6]: 30%; inhibition [7]: 10%; inhibition [8]: 16%; inhibition [15]: 15%; inhibition [16]: 10%; inhibition [17]: 7%; inhibition [18]: 7%; Ki [12]: 115 nM
O=S(=O)(c1ccc2ccccc2c1)n1cc(C2=CCNCC2)c2ccccc21	27	–	–
CN1CC=C(c2cn(S(=O)(=O)c3ccc(F)cc3)c3ccccc23)CC1	5	42.7	–
O=S(=O)(c1ccccc1F)n1cc(C2=CCNCC2)c2ccccc21	1	2.7	Ki [4]: 741 nM; Ki [5]: > 5000 nM; inhibition [14]: 50%; inhibition [6]: 11%; inhibition [7]: 9%; inhibition [8]: 53%; inhibition [15]: 57%; Ki [11]: > 2000 nM; Ki [12]: 875 nM
COc1ccc2c(c1)c(C1=CCNCC1)cn2S(=O)(=O)c1ccc(N)cc1	3	0.4	Ki [13]: > 5000 nM; inhibition [6]: 27%; inhibition [7]: 32%; Ki [12]: 97 nM
Nc1ccc(S(=O)(=O)n2cc(C3=CCNCC3)c3cc([N+](=O)[O-])ccc32)cc1	29	–	–
Nc1ccc(S(=O)(=O)n2cc(C3=CCNCC3)c3cc(F)ccc32)cc1	1	9.7	–
CN1CC=C(c2cn(S(=O)(=O)c3ccccc3F)c3ccccc23)CC1	10	3.9	–
O=S(=O)(c1nccc2sncc12)n1cc(C2=CCNCC2)c2ccccc21	5	169	–
CN1CC=C(c2cn(S(=O)(=O)c3ccccc3)c3ccccc23)CC1	2	13.8	–
O=S(=O)(c1ccccc1)n1cc(C2CCNCC2)c2cc(F)ccc21	20	–	–
Nc1ccc(S(=O)(=O)n2cc(C3=CCNCC3)c3cc4c(cc32)OCO4)cc1	1	1.7	–
O=S(=O)(c1ccccc1)n1cc(C2=CCNCC2)c2cc(F)ccc21	2.4	–	–
